The source of these data is the supplement of paper PMC11208160.
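Throughout, for recombinant UMI read abundance after kanamycin selection (control-corrected): IS621 bridge recombinase in Escherichia coli cells against a fixed T5 target plasmid.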
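Throughout, for recombinant barcode read abundance after kanamycin selection (control-corrected): IS621 recombinase and bridge RNA in Escherichia coli cells.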

The first series is described as follows: recombinant barcode read abundance after kanamycin selection (control-corrected) (log10(CPM+1)); higher = more efficient recombination; sequences stand for … in AGTGCAGAGAAAATCGGCCAGTTTTCTCTGCCTGCAGTCCGCATGCCGT…AGATTTATGCAGCGGACTGCCTTTCTCCCAAAGTGATAAACCGGACAGTATCATGGACCGGTTTTCCCGGTAATCCGTATTTGCAAGGTTGGTTTCACT; site = the 11-nt target. The method, then: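 Pooled E. coli target-specificity screen for the IS621 bridge recombinase. Each library plasmid pairs an 11-nt target (CT core) with a bridge RNA whose target-binding loop (9-nt LTG + 4-nt RTG) is reprogrammed; the rest of the 177-nt WT IS621 bridge RNA scaffold is fixed. The plasmid is co-electroporated with a WT donor plasmid; recombinase is induced with 0.1 mM IPTG and recombinants are selected on kanamycin. Recombinant barcodes are sequenced, converted to CPM, averaged over two biological replicates and corrected by the unselected control CPM. Molecule = full bridge RNA written as DNA: LTG = specificity nt 1-9, RTG = reverse complement of specificity nt 8-11, in the WT scaffold.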
On to “AAAACTACTTGGGTTCTAACCTGTTGCCA (site AAAACTACTTG)”, for which the “recombinant barcode read abundance (log10)” value is 0.2.
Still for that read-out and setting: in the case of “AAAACTACTTGGGTTCTAACCTGTTGCCA (site AATGCTACTTG)” it was 0.15.
For “AAAAGCCCTTGGGTTCTAACCTGTTGCCT (site AAAAGCCCTAG)”, the “recombinant barcode read abundance (log10)” value worked out at 0.77.
Take “AAAAGCCCTTGGGTTCTAACCTGTTGCCT (site ACAAGCCCTAG)”: the “recombinant barcode read abundance (log10)” value amounted to 0.154.
The same measure, in the same setting: in the case of “AAAAGCCCTTGGGTTCTAACCTGTTGCCT (site AGAAGCCCTAG)” it was 0.0771; in that of “AAAAGCCCTTGGGTTCTAACCTGTTGCCT (site ATAAGCCCTAG)”, 0.357.
Same read-out and setting: the result for “AAACGCTCTTGGGTTCTAACCTGTTGCCT (site AAACGCTCTAG)” reads 1.75; that for “AAACGCTCTTGGGTTCTAACCTGTTGCCT (site TAACGCTCTAG)”, 0.446; that for “AAACTAACTTGGGTTCTAACCTGTTGCCT (site AAACTAACTAG)”, 1.31.
Same read-out and setting: the result for “AAACTAACTTGGGTTCTAACCTGTTGCCT (site ACACTAACTAG)” reads 0.167; that for “AAACTAACTTGGGTTCTAACCTGTTGCCT (site AGACTAACTAG)”, 0.0602.
For “AAACTAACTTGGGTTCTAACCTGTTGCCT (site ATACTAACTAG)”, the “recombinant barcode read abundance (log10)” value was found to be 0.073.
On the same count and under the same terms, the result for “AAACTTACTTGGGTTCTAACCTGTTGCCT (site AAACTTACTAG)” reads 0.721.
The same measure, in the same setting: in the case of “AAACTTACTTGGGTTCTAACCTGTTGCCT (site AGATTTACTAG)” it was 0.0102; in that of “AAAGCTCCTTGGGTTCTAACCTGTTGCTT (site AAAGCTACTAG)”, 0.0734.
On the same count and under the same terms, the result for “AAAGCTCCTTGGGTTCTAACCTGTTGCTT (site AAAGCTCCTAA)” reads 0.318; that for “AAAGGGACTTGGGTTCTAACCTGTTGCCT (site AAAGGGACTAG)”, 2.08; that for “AAAGGGACTTGGGTTCTAACCTGTTGCCT (site AAGGAGACTAG)”, 0.191.
As for “AAATCTGCTTGGGTTCTAACCTGTTGCCT (site AAATCTGCTAG)”, the “recombinant barcode read abundance (log10)” value came out at 0.122.
The same measure, in the same setting: the result for “AAATCTGCTTGGGTTCTAACCTGTTGCCT (site GGTGGGACTGT)” reads 0.229; that for “AACAAGCCTTGGGTTCTAACCTGTTGCTG (site AACAAGCCTCA)”, 0.896; that for “AACAAGCCTTGGGTTCTAACCTGTTGCTG (site AACATGCCTAA)”, 0.0487.
The same measure, in the same setting: in the case of “AACACGACTTGGGTTCTAACCTGTTGCTC (site AACACGACTGA)” it was 0.171; in that of “AACACGACTTGGGTTCTAACCTGTTGCTC (site CCATATGCTAG)”, 0.235; in that of “AACAGGCCTTGGGTTCTAACCTGTTGCCT (site AACAGGCCTAG)”, 0.0525.
Same read-out and setting: in the case of “AACAGGCCTTGGGTTCTAACCTGTTGCCT (site TGTGACACTTT)” it was 0; in that of “AACATACCTTGGGTTCTAACCTGTTGCCT (site AACATACCTAG)”, 0.737.
Take “AACATACCTTGGGTTCTAACCTGTTGCCT (site ATCATTCCTAG)”: the “recombinant barcode read abundance (log10)” value is 0.564.
On the same count and under the same terms, in the case of “AACATCACTTGGGTTCTAACCTGTTGCCG (site AACATCACTCG)” it was 1.08; in that of “AACATCACTTGGGTTCTAACCTGTTGCCG (site AGCATCACTAG)”, 0; in that of “AACCACTCTTGGGTTCTAACCTGTTGCCT (site AACCACTCTAG)”, 2.42.
Same read-out and setting: the result for “AACCACTCTTGGGTTCTAACCTGTTGCCT (site CACCACTCTAG)” reads 0.942.
The same measure, in the same setting: in the case of “AACCACTCTTGGGTTCTAACCTGTTGCCT (site GACCACTCTAG)” it was 0.266.
On to “AACCACTCTTGGGTTCTAACCTGTTGCCT (site TACCACTCTAG)”, for which the “recombinant barcode read abundance (log10)” value is 1.46.
For the sequence “AACCAGTCTTGGGTTCTAACCTGTTGCCG (site AACCAGTCTCG)”, the “recombinant barcode read abundance (log10)” value came to 0.898.
The same measure, in the same setting: in the case of “AACCAGTCTTGGGTTCTAACCTGTTGCCG (site ACCCAGTCTTG)” it was 0.033.

Another series is described as follows: recombinant UMI read abundance after kanamycin selection (control-corrected) (log10(CPM+1)); higher = more efficient recombination; extreme values may be limits of the assay; sequences stand for … in AGTGCAGAGAAAATCGGCCAGTTTTCTCTGCCTGCAGTCCGCATGCCGTGGGACCCCTTGGGTTCTAACCTGTTGCCTAGATTTATGCAGCGGACTGCCTTTCTCCCAAAGTGATAAACCGG…AGGTTGGTTTCACT; site = the 11-nt donor. A digest of the protocol: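 In Escherichia coli, a pool of donor and donor-binding-loop pairs, each with a 12-nt UMI, was tested for the IS621 bridge recombinase. Plating was on IPTG (0.07 mM) plus kanamycin, or without selection, in two replicates. Recombinant UMIs were amplified by PCR across the donor–target junction and sequenced, and counts were reported as log10(CPM+1) after averaging and control-derived scaling.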
As for “TTTAGAACATGGACCGGTTTTCCCGGTAATCCGTATTTGGC (site CTTAGAACTGC)”, the “recombinant UMI read abundance (log10)” value came to 0.
On the same count and under the same terms, in the case of “TTTAGAACATGGACCGGTTTTCCCGGTAATCCGTATTTGGC (site GTTAGAACTGC)” it was 0; in that of “TTTAGAACATGGACCGGTTTTCCCGGTAATCCGTATTTGGC (site TTTAGAACTGC)”, 0; in that of “TTTAGAGCATGGACCGGTTTTCCCGGTAATCCGTATTTGTT (site TTTAGAGCTAA)”, 0.975.
The same measure, in the same setting: the result for “TTTAGCTCATGGACCGGTTTTCCCGGTAATCCGTATTTGTT (site TTTAGCTCTAA)” reads 0.0116; that for “TTTCAAACATGGACCGGTTTTCCCGGTAATCCGTATTTGTG (site TTTCAAACTCA)”, 0.0135.
In the case of “TTTCACCCATGGACCGGTTTTCCCGGTAATCCGTATTTGGG (site TTTCACCCTCC)”, the “recombinant UMI read abundance (log10)” value is 0.00832.
Take “TTTCACTCATGGACCGGTTTTCCCGGTAATCCGTATTTGGT (site TTTCACTCTAC)”: the “recombinant UMI read abundance (log10)” value is 0.00742.
Same read-out and setting: the result for “TTTCCGACATGGACCGGTTTTCCCGGTAATCCGTATTTGTA (site TTTCCGACTTA)” reads 0.018; that for “TTTCTACCATGGACCGGTTTTCCCGGTAATCCGTATTTGGG (site TTTCTACCTCC)”, 0.00805.
Turning to “TTTCTAGCATGGACCGGTTTTCCCGGTAATCCGTATTTGTA (site TTTCTAGCTTA)”, the “recombinant UMI read abundance (log10)” value was found to be 0.542.
Still for that read-out and setting: in the case of “TTTCTCTCATGGACCGGTTTTCCCGGTAATCCGTATTTGTA (site ATTCTCTCTTA)” it was 0.353.
Same read-out and setting: in the case of “TTTCTCTCATGGACCGGTTTTCCCGGTAATCCGTATTTGTA (site CTTCTCTCTTA)” it was 0.301; in that of “TTTCTCTCATGGACCGGTTTTCCCGGTAATCCGTATTTGTA (site GTTCTCTCTTA)”, 0.297; in that of “TTTCTCTCATGGACCGGTTTTCCCGGTAATCCGTATTTGTA (site TTTCTCTCTTA)”, 0.571.
Same read-out and setting: in the case of “TTTCTGACATGGACCGGTTTTCCCGGTAATCCGTATTTGCC (site TTTCTGACTGG)” it was 0; in that of “TTTGAGACATGGACCGGTTTTCCCGGTAATCCGTATTTGGA (site TTTGAGACTTC)”, 0.832.
On to “TTTGCCGCATGGACCGGTTTTCCCGGTAATCCGTATTTGCT (site TTTGCAGCTAG)”, for which the “recombinant UMI read abundance (log10)” value came to 0.0102.
Still for that read-out and setting: in the case of “TTTGCCGCATGGACCGGTTTTCCCGGTAATCCGTATTTGCT (site TTTGCCGCTAG)” it was 0.548; in that of “TTTGCCGCATGGACCGGTTTTCCCGGTAATCCGTATTTGCT (site TTTGCGGCTAG)”, 0.00684; in that of “TTTGCCGCATGGACCGGTTTTCCCGGTAATCCGTATTTGCT (site TTTGCTGCTAG)”, 0.
“TTTGGCGCATGGACCGGTTTTCCCGGTAATCCGTATTTGAG (site TTTGGCGCTCT)”: the “recombinant UMI read abundance (log10)” value stood at 0.115.
On the same count and under the same terms, the result for “TTTGGGGCATGGACCGGTTTTCCCGGTAATCCGTATTTGAC (site TTTGGGGCTGT)” reads 1.57; that for “TTTGTTACATGGACCGGTTTTCCCGGTAATCCGTATTTGCC (site TTTGTTACTGG)”, 0.44.
On the same count and under the same terms, in the case of “TTTTTGGCATGGACCGGTTTTCCCGGTAATCCGTATTTGTG (site TATTTGGCTCA)” it was 0.0105; in that of “TTTTTGGCATGGACCGGTTTTCCCGGTAATCCGTATTTGTG (site TCTTTGGCTCA)”, 0.0102; in that of “TTTTTGGCATGGACCGGTTTTCCCGGTAATCCGTATTTGTG (site TGTTTGGCTCA)”, 0.0296.
Still for that read-out and setting: the result for “TTTTTGGCATGGACCGGTTTTCCCGGTAATCCGTATTTGTG (site TTTTTGGCTCA)” reads 0.00438.
